Reference: patent EP1925615B1, “Method of fluorine-18 labelling of tropane derivatives” (Orphachem, priority 2006, dated 2008)

Legend:
[1] = target: serotonine transporter (Homo sapiens, UniProt P31645); conditions: cited from earlier work
[2] = target: norepinephrine transporter (Homo sapiens, UniProt P23975); conditions: cited from earlier work
[3] = target: dopamine transporter (DAT); conditions: dopamine transporter (DAT) ligand; cited from earlier work
[4] = Chemical and radiochemical stability of the radiotracer preparation by HPLC; type: physicochemical; conditions: preparation ready for i.v. injection (physiological saline, ethanol below 10%); HPLC D at regular 15-min intervals during 120 min
Description: Quality controls of [^18F]LBT-999 ([^18F]-10) were performed on an aliquot of the preparation ready for i.v. injection. The radiotracer preparation was a clear and colourless solution with a measured pH between 5 and 7.
Quality control of [^18F]LBT-999 ([^18F]-10). The radiotracer preparation was visually inspected for clarity, absence of colour and particulates. An aliquot of the preparation was removed for determination of pH using standard pH-paper. Chemical and radiochemical purities were also assessed on this aliquot by HPLC (HPLC D), with a sample of authentic 10 (tR : 2.25 min) which synthesis and characterization were disclosed in Dollé F et al., 2006. Particular attention was paid to the absence of non-radioactive precursor 9 (tR: 3.45 min). Chemical and radiochemical stability of the entire preparation was tested by HPLC (HPLC D) at regular 15-min intervals during 120 min. Specific radioactivity of the radiotracer was calculated from three consecutive HPLC (HPLC D) analyses (average) and determined as follows: The area of the UV absorbance peak corresponding to the radiolabelled product was measured (integrated) on the HPLC chromatogram and compared to a standard curve relating mass to UV absorbance.

Chain of norepinephrine transporter (P23975 whole entry): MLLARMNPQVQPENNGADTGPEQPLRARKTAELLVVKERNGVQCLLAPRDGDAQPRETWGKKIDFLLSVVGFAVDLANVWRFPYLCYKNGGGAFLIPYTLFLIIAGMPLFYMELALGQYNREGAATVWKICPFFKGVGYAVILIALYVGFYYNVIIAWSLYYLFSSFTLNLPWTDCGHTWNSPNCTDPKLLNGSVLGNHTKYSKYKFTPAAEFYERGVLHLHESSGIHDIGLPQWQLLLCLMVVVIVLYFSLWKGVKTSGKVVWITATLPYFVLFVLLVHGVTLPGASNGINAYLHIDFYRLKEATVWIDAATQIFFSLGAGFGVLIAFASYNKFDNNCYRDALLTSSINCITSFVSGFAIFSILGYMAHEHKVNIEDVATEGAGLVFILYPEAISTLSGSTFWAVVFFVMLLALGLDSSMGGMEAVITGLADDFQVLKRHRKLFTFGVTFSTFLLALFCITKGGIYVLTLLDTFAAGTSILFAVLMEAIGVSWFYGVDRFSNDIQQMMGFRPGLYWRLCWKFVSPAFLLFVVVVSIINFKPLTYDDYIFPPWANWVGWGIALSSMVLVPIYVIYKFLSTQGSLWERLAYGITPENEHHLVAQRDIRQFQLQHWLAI
Chain of serotonine transporter (P31645 whole entry): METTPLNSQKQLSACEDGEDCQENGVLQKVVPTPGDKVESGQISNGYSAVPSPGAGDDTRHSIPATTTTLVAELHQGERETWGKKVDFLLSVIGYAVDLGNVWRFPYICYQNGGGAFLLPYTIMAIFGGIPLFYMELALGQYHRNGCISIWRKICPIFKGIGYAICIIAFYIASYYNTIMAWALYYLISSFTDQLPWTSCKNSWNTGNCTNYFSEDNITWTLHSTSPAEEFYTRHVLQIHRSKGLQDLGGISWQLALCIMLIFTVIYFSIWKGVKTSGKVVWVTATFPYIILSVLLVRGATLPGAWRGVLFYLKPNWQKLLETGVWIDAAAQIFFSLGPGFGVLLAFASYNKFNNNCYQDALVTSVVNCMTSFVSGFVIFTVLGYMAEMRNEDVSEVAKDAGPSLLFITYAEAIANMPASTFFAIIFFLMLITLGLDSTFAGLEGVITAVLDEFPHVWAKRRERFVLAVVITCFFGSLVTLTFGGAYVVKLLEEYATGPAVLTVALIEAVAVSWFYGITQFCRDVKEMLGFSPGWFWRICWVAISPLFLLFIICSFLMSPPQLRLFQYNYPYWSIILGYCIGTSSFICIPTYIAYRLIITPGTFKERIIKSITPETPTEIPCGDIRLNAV

Structure (SMILES)	IC50 [1] [µM]	IC50 [2] [µM]	Kd [3] [µM]	chemically and radiochemically stable [4]
COC(=O)[C@H]1[C@@H](c2ccc(C)cc2)C[C@@H]2CC[C@H]1N2C/C=C/CF [LBT-999, 8-((E)-4-fluoro-but-2-enyl)-3β-p-tolyl-8-aza-bicyclo[3.2.1]octane-2β-carboxylic acid methyl ester]	> 1	> 1	0.009	–
COC(=O)[C@H]1[C@@H](c2ccc(C)cc2)C[C@@H]2CC[C@H]1N2C/C=C/C[18F] [[^18F]LBT-999, 8-((E)-4-[^18F]fluoro-but-2-enyl)-3β-p-tolyl-8-aza-bicyclo-[3.2.1]octane-2β-carboxylic acid methyl ester]	–	–	–	at least 120 minutes
